# Test results as given in patent US20030228607A1, “Screening method and modulators having an improved therapeutic profile” (priority 2002, published 2003).
# What was measured:
# [1] = biological target: T1, human LXRα ligand binding domain with co-repressors NCoR and SMRT (Homo sapiens, UniProt Q13133); experiment: GAL4 two-hybrid co-repressor interaction in CV-1 cells, LXRα; assay type: cell-based; settings: 1 μM overnight, luciferase normalized to β-gal
# T1 construct: expressed in transfected cells; host or cells: CV-1 cells
# T1 sequence (Q13133 164-447): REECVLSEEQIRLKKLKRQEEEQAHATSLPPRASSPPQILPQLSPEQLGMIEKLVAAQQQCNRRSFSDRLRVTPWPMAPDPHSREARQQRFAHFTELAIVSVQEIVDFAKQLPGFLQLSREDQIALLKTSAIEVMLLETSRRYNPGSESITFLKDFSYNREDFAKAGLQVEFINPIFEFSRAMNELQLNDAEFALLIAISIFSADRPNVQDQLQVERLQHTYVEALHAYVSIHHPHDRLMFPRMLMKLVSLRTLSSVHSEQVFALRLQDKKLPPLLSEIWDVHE
# Protocol: (§1) FIG. 6. […] Two-hybrid analysis was performed by transiently transfecting CV-1 cells with a Gal4-luciferase reporter, Gal4-fusions of the receptor interacting domains of NcoR and SMRT, VP16 fusion of the ligand binding domains of LXRα and LXRβ and a β-gal expression vector. Cells were transfected with FUGENE transfection reagent and incubated with vehicle or 1 μM T0901317 overnight. The cells were then lysed and analyzed for β-gal and luciferase activity. The data is presented as luciferase activity normalized to β-gal activity.
# (§2) GAL4 two-hybrid experiments. CV-1 cells were transfected using FuGene6 (Roche Applied Science, Indianapolis, Ind.) per manufacturer's instructions in 96 well plates with a total of 65 ng of DNA per well, consisting of 20 ng β-gal reporter, 15 ng GAL4-UAS4xRE (SEQ. ID. No. 28), 15 ng VP16-LXR-LBD, and 15 ng GAL4-human silencing mediator of retinoid and thyroid transcription (SMRT) receptor interacting domain 1 and 2 (ID1+ID2) or human nuclear receptor corepressor 1 (NCoR) ID1+ID2.
# [2] = biological target: T2, human LXRβ ligand binding domain with co-repressors NCoR and SMRT (Homo sapiens, UniProt P55055, DUP175-175); experiment: GAL4 two-hybrid co-repressor interaction in CV-1 cells, LXRβ; assay type: cell-based; settings: 1 μM overnight, luciferase normalized to β-gal
# T2 construct: expressed in transfected cells; host or cells: CV-1 cells
# T2 sequence (P55055 with tags, fused parts or gaps DUP175-175): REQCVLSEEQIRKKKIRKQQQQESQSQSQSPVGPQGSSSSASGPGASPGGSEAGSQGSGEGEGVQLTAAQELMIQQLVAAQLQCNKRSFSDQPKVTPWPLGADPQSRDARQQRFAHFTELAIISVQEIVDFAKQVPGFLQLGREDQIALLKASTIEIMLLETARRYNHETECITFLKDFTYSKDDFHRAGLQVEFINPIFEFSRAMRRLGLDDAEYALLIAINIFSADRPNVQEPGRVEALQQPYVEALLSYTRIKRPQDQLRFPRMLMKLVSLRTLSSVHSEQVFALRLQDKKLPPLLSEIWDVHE
# Protocol: as §1, §2
# [3] = test system: ABCA1; experiment: ABCA1 mRNA in mouse embryonic fibroblasts in culture; assay type: cell-based; settings: MEFs in culture, 1 μM, 18 hrs; LXR dependent
# Protocol: (§3) FIG. 5. LXR mediated repression of ABCA1 is tissue specific. To measure the LXR dependent regulation of ABCA1 in different tissues wild type and LXRαβ−/− mice were dosed with 10 mg/kg T0901317 for 7 days by oral gavage. After 7 days the animals were sacrificed and intestinal mucosa, quadriceps, and livers were harvested. Mouse embryonic fibroblasts (MEFs) were isolated from embryos harvested at embryonic day 14. MEFs were plated in DMEM+10% FBS and treated with either vehicle or 1 μM T0901317 for 18 hrs. RNA was isolated and RT-PCR was used to quantitate the levels of ABCA1 and cyclophilin in FIG. 5A, intestinal mucosa, FIG. 5B, liver, FIG. 5C, MEFs and FIG. 5D, quadricep. […] RNA isolation and analysis of gene expression by quantitative RT-PCR. […] Quantitative PCR of reverse transcriptase reactions was carried out with 1.25 units Taq polymerase (Life Technologies), 1× Taq buffer, 3 mM MgCl2, 200 uM dNTPs, 400 nM target specific forward and reverse primers and 100 nM target specific fluorogenic probe. […] Levels of cyclophilin were measured in all in vivo samples and the results are presented as number of target transcripts per cyclophilin transcript. […] ABCA1 levels were also measured in isolated mouse embryonic fibroblasts treated with T091317 in culture. LXR agonist treatment increases expression of ABCA1 mRNA in all of the tissues analyzed, in an LXR dependent manner. […]
# [4] = test system: ABCA1; experiment: ABCA1 mRNA in tissues of mice dosed by oral gavage; assay type: in vivo, mouse; settings: 10 mg/kg daily for 7 days, intestinal mucosa, liver, quadriceps, LXR dependent
# Protocol: as §3
# [5] = test system: ABCA1; experiment: ABCA1 mRNA (RT-PCR) and protein (western blot) in peritoneal macrophage; assay type: cell-based, mouse; settings: 1 μM, 18 hrs
# Excerpt: FIG. 2. LXR dependent activation and repression of ABCA1. Thyoglycolate induced peritoneal macrophage were isolated from wild type and LXRαβ knockout mice. […] FIG. 2A. Following induction mRNA was isolated and RT-PCR was used to quantitate the levels of ABCA1 and the cyclophilin. ABCA1 levels were normalized to cyclophilin levels and the results are presented as fold induction above wild type macrophage treated with vehicle. FIG. 2B. For western blot analysis, whole cells extracts were isolated, run on an SDS-PAGE and probed with an antibody specific for ABCA1. RNA isolation and analysis of gene expression by quantitative RT-PCR. Total RNA from mouse tissues and cells was isolated using RNeasy kits (QIAGEN Inc.) according to the supplier's total RNA isolation procedure. Real time PCR was performed using a Perkin-Elmer/ABI 7700 Prism. […] Quantitative PCR of reverse transcriptase reactions was carried out with 1.25 units Taq polymerase (Life Technologies), 1× Taq buffer, 3 mM MgCl2, 200 uM dNTPs, 400 nM target specific forward and reverse primers and 100 nM target specific fluorogenic probe. […] Levels of cyclophilin were measured in all in vivo samples and the results are presented as number of target transcripts per cyclophilin transcript. […] RT-PCR was used to quantitate the levels of ABCA1 and the cyclophilin following induction of mRNA. […]
# [6] = biological target: T3, GAL4-human silencing mediator of retinoid and thyroid transcription (SMRT) receptor interacting domain 1 and … (yeast; human); experiment: mammalian GAL4/VP16 two-hybrid, CV-1 cells, luciferase reporter
# T3 construct: also called GAL4-SMRT ID1+ID2
# T3 chain: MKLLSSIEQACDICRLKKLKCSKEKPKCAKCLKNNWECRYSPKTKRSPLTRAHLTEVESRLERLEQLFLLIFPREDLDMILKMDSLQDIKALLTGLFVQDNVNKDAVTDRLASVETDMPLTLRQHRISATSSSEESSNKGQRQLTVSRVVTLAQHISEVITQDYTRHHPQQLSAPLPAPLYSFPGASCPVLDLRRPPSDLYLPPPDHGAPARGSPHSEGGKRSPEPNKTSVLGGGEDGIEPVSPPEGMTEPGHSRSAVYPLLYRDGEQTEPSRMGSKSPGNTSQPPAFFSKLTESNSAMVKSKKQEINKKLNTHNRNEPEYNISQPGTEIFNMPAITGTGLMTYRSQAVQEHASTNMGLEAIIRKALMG
Molecule,interaction of LXRα with co-repressors NCoR and SMRT [1],interaction of LXRβ with co-repressors NCoR and SMRT [2],expression of ABCA1 mRNA in mouse embryonic fibroblasts [3],expression of ABCA1 mRNA in tissues [4],"ABCA1 mRNA levels ([5]; RT-PCR normalized to cyclophilin, LXR dependent (wild type vs LXRαβ-/-))","ABCA1 protein levels ([5]; western blot, LXR dependent)",binding result [6]
"O=S(=O)(c1ccccc1)N(CC(F)(F)F)c1ccc(C(O)(C(F)(F)F)C(F)(F)F)cc1 [T0901317, N-(2,2,2,-trifluoro-ethyl)-N-[4-(2,2,2-trifluoro-1-hydroxy-1-trifluoromethyl-ethyl)-phenyl]-benzenesulfonamide]",inhibited,inhibited,increases,increases,increases,increases,–
"VP16-LXR-LBD (VP16 activation domain fused to the ligand binding domain of human LXRβ, amino acids 155-461) (receptor, also called VP16 fusion of LXRβ; VP16-LXRβ-LBD) SRGRTRNNYGSTIEGLLDLPDDDDAPAEAGLVAPRMSFLSAGQRPRRLSTTAPITDVSLVDELRLDGEEVDMTPADALDDFDLEMLGDVESPSPGMTHDPVSYGALDVDDFEFEQMFTDALGIDDFGGREQCVLSEEQIRKKKIRKQQQESQSQSQSPVGPQGSSSSASGPGASPGGSEAGSQGSGEGEGVQLTAAQELMIQQLVAAQLQCNKRSFSDQPKVTPWPLGADPQSRDARQQRFAHFTELAIISVQEIVDFAKQVPGFLQLGREDQIALLKASTIEIMLLETARRYNHETECITFLKDFTYSKDDFHRAGLQVEFINPIFEFSRAMRRLGLDDAEYALLIAINIFSADRPNVQEPGRVEALQQPYVEALLSYTRIKRPQDQLRFPRMLMKLVSLRTLSSVHSEQVFALRLQDKKLPPLLSEIWDVHE",–,–,–,–,–,–,binds
"VP16-LXR-LBD (VP16 activation domain fused to the ligand binding domain of human LXRα, amino acids 164-447) (receptor, also called VP16 fusion of LXRα; VP16-LXRα-LBD) SRGRTRNNYGSTIEGLLDLPDDDDAPAEAGLVAPRMSFLSAGQRPRRLSTTAPITDVSLVDELRLDGEEVDMTPADALDDFDLEMLGDVESPSPGMTHDPVSYGALDVDDFEFEQMFTDALGIDDFGGREECVLSEEQIRLKKLKRQEEEQAHATSLPPRRSSPPQILPQLSPEQLGMIEKLVAAQQQCNRRSFSDRLRVTPWPMAPDPHSREARQQRFAHFTELAIVSVQEIVDFAKQLPGFLQLSREDQIALLKTSAIEVMLLETSRRYNPGSESITFLKDFSYNREDFAKAGLQVEFINPIFEFSRAMNELQLNDAEFALLIAISIFSADRPNVQDQLQVERLQHTYVEALHAYVSIHHPHDRLMFPRMLMKLVSLRTLSSVHSEQVFALRLQDKKLPPLLSEIWDVHE",–,–,–,–,–,–,binds
